Test: Test of solubility of the starting materials and homopolyglycolide in organic solvents
Text: A solvent which could be used in the ring opening polymerization should meet criteria: i) the solvent should be good enough to dissolve all starting materials including monomer (glycolide), co-monomer, initiator, catalyst and dispersion stabilizer, and ii) it should not dissolve resulting polymer (homopolyglycolide and co-polymers).

solution concentration permitted in acetonitrile (solvent acetonitrile): 50 wt-% | solubility in Toluene (solvent toluene): bad
Compound: O=C1COC(=O)CO1 [Glycolide]

Source: patent publication US9657147B2, “Method for preparing glycolide polyester by ring opening polymerization” (TEKNOLOGIAN TUTKIMUSKESKUS VTT OY, priority 2011, dated 2017)
